Test results reported in PMC3793924, “Targeting Androgen Receptor/Src Complex Impairs the Aggressive Phenotype of Human Fibrosarcoma Cells” (PLoS ONE, 2013).

Legend:
HT1080 cells [1] = experiment: Wound scratch assay in HT1080 cells; assay type: cell-based, human; conditions: quiescent HT1080 cells, 6 h, EGF 100 ng/ml; for Effect on EGF-induced wound closure (migration): Casodex 10 μM, S1 and Ss peptides 10 nM
HCT116 cells [2] = experiment: BrdU incorporation in HCT116 cells; assay type: cell-based, human; conditions: quiescent HCT116 cells, EGF 100 ng/ml, 18 h; for Inhibition of EGF-induced BrdU incorporation: Casodex 10 μM, S1 and Ss peptides 10 nM
Description: (§1) Quiescent human colon cancer-derived HCT116 cells were used. In A, cells on coverslips were left un-stimulated or stimulated for 18 h with the indicated compounds. […] After in vivo pulse with BrdU (100 μM), BrdU incorporation was analyzed by IF and expressed as % of total cells. Several independent experiments were performed in duplicate and the results were derived from at least 400 scored cells for each coverslip. Mean and SEM are shown. n represents the number of experiments. In B, the cells were left untreated or treated for 6 h with the indicated compounds. […] Cells were allowed to migrate in collagen-pre-coated Trans-well filters. Migrated cells were stained and counted as reported in Methods. Results were derived from several independent experiments, each performed in duplicate. Data are expressed as relative increase. Mean and SEM are shown. n represents the number of experiments. Quiescent human pancreatic cancer-derived KP-2 cells were used. In C, cells on coverslips were left unstimulated or stimulated for 18 h with the indicated compounds. […] After in vivo pulse with BrdU (100 μM), BrdU incorporation was analyzed by IF and expressed as % of total cells. Several independent experiments were performed in duplicate and the results were derived from at least 400 scored cells for each coverslip. Mean and SEM are shown. n represents the number of experiments. In D, the cells were left untreated or treated for 6 h with the indicated compounds. […] Cells were allowed to migrate in collagen-pre-coated Trans-well filters. Migrated cells were stained and counted as reported in Methods. Results were derived from several independent experiments, each performed in duplicate. Data are expressed as relative increase. Mean and SEM are shown. n represents the number of experiments. […] After in vivo labeling with 100 μM BrdU (Sigma), DNA synthesis was analyzed by immunofluorescence, using diluted (1:50 in PBS) mouse monoclonal anti-BrdU antibody (clone BU-1, from GE Healthcare).

MCF-7 cells = experiment: Trans-well migration of MCF-7 cells; assay type: cell-based, human; conditions: quiescent MCF-7 cells, 6 h, EGF 100 ng/ml; for Inhibition of EGF-induced motility (transmigration): Casodex 10 μM, S1 and Ss peptides 10 nM
KP-2 cells = experiment: BrdU incorporation in KP-2 cells; assay type: cell-based, human; conditions: quiescent KP-2 cells, EGF 100 ng/ml, 18 h; for Inhibition of EGF-induced BrdU incorporation: Casodex 10 μM, S1 and Ss peptides 10 nM
Description: as §1

NIH3T3 cells = experiment: BrdU incorporation in NIH3T3 fibroblasts; assay type: cell-based, mouse; conditions: EGF 100 ng/ml, 18 h; for Inhibition of EGF-induced BrdU incorporation: quiescent NIH3T3 fibroblasts, Casodex 10 μM, S1 and Ss peptides 1 nM
Description: NIH3T3 cells were used. In A, cells were transfected with 3416 or 3424 ARE-Luc constructs with or without hAR-expressing plasmid and then made quiescent as reported in Methods. Cells were left unstimulated or stimulated for 18 h with 10 nM R1881. Luciferase activity was assayed, normalized using beta-gal as an internal control, and expressed as fold induction. Three independent experiments were performed in triplicate. Means and SEM are shown; n represents the number of experiments. […] After in vivo labeling with BrdU (100 μM), BrdU incorporation was analyzed by IF and expressed as % of total cells. Several independent experiments were performed in duplicate and data derived from at least 700 scored cells for each coverslip. Mean and SEM are shown. n represents the number of experiments. […] Quiescent NIH3T3 fibroblasts were used. In C, cells on coverslips were left unstimulated or stimulated for 18 h with the indicated compounds. […] After in vivo pulse with BrdU (100 μM), BrdU incorporation was analyzed by IF and expressed as % of total cells. Several independent experiments were performed in duplicate and the results were derived from at least 500 scored cells for each coverslip. Mean and SEM are shown. n represents the number of experiments. […] The Western blot of MCF-7 cell lysate with the anti-tubulin or the anti-EGFR antibody is shown for comparison. In D, cells were left untreated or treated for 6 h with the indicated compounds. […] Cells were allowed to migrate in collagen pre-coated Trans-well filters. Migrated cells were stained and counted as reported in Methods. Results were derived from several independent experiments, each performed in duplicate. Data are expressed as relative increase. Mean and SEM are shown. n represents the number of experiments. […] (PPTX) Click here for additional data file.

HT1080 cells [3] = experiment: BrdU incorporation (DNA synthesis) in quiescent HT1080 cells; assay type: cell-based, human; conditions: EGF 100 ng/ml, 18 h; for Inhibition of EGF-induced BrdU incorporation (DNA synthesis): Casodex 10 μM, S1 and Ss peptides 1 nM, BrdU by IF, % of total nuclei
Description: Human fibrosarcoma HT1080 cells were used. In A, quiescent cells on coverslips were left un-stimulated or stimulated for 18 h with the indicated compounds. […] After in vivo pulse with BrdU (100 μM; Sigma), BrdU incorporation was analyzed by IF and expressed as % of total nuclei. Several independent experiments were performed in duplicate and the results were derived from at least 400 scored cells for each coverslip. Mean and SEM are shown. n represents the number of experiments. […] In B, xenografts were established in nude male mice as described in Methods. On alternate days, animals were intra-peritoneally injected with vehicle alone (vehicle), or the pure androgen antagonist Casodex (Cx: 0.1 μg/mice; 4µg/Kg body weight), or DHT (DHT: 0,1 μg/mice; 3 μg/Kg body weight) alone. Volumes of HT1080 cell xenografts were measured at the indicated times in two dimensions by a caliper and expressed as tumor mass (mm^3). Mean and SEM are shown. n represents the number of experiments.
Quiescent HT1080 cells were used. […] Casodex (at 10 μM) was used for comparison with the S1 peptide. Upper section in A, Western blot of HT1080 cell lysates with anti-EGFR antibody. […] In B, lysates were immune-precipitated with the anti-Src MAb and Src activity in immune complexes was assayed using acidified enolase, as a substrate. In C, cells on coverslips were left untreated or treated for 18 h with the indicated compounds. After in vivo pulse with BrdU (100 μM), BrdU incorporation was analyzed by IF and expressed as % of total nuclei. Several independent experiments were performed in duplicate and the results were obtained from at least 500 scored cells for each coverslip. Mean and SEM are shown. n represents the number of experiments.

HCT116 cells [4] = experiment: Trans-well migration of HCT116 cells; assay type: cell-based, human; conditions: quiescent HCT116 cells, 6 h, EGF 100 ng/ml; for Inhibition of EGF-induced motility (Trans-well): Casodex 10 μM, S1 and Ss peptides 10 nM

Row | Compound | Effect on EGF-induced wound closure (migration) (HT1080 cells [1]) | Inhibition of EGF-induced BrdU incorporation (HCT116 cells [2]) | Inhibition of EGF-induced motility (transmigration) (MCF-7 cells) | Inhibition of EGF-induced BrdU incorporation (KP-2 cells) | Inhibition of EGF-induced BrdU incorporation (NIH3T3 cells) | Inhibition of EGF-induced BrdU incorporation (DNA synthesis) (HT1080 cells [3]) | Inhibition of EGF-induced motility (Trans-well) (HCT116 cells [4]) | Wound closure upon stimulation (HT1080 cells [1]) | BrdU incorporation upon stimulation (HCT116 cells [2]) | Motility in transmigration assay upon stimulation (MCF-7 cells) | BrdU incorporation upon stimulation (KP-2 cells) | BrdU incorporation (DNA synthesis) upon stimulation with the compound alone (NIH3T3 cells; quiescent NIH3T3 cells, R1881 10 nM) | BrdU incorporation (DNA synthesis) upon stimulation with the compound alone (HT1080 cells [3]; R1881 and DHT 10 nM) | Motility upon stimulation (HCT116 cells [4])
1 | CC(O)(CS(=O)(=O)c1ccc(F)cc1)C(=O)Nc1ccc(C#N)c(C(F)(F)F)c1 (stereo not drawn) [Casodex] | Only few cells migrate | similarly inhibit these EGF-elicited responses | inhibited to a similar extent | inhibit both DNA synthesis and motility | significantly inhibit both the responses | inhibits the EGF-induced BrdU incorporation | similarly inhibit these EGF-elicited responses |  |  |  |  |  |  | 
2 | Ac-HPKPARIPHP-NH2 [Ss peptide] | much weaker inhibitory effect | does not interfere with the EGF-elicited responses |  | does not interfere with the EGF-elicited responses | slightly modifies DNA synthesis | only slightly affects | does not interfere with the EGF-elicited responses |  |  |  |  |  |  | 
3 | Ac-PPPHPHARIK-NH2 [S1 peptide] | consistently inhibits the EGF-induced effect | similarly inhibit these EGF-elicited responses | inhibited to a similar extent | inhibit both DNA synthesis and motility | significantly inhibit both the responses | abolishes the mitogenic response elicited by EGF | similarly inhibit these EGF-elicited responses |  |  |  |  |  |  | 
4 | EGF: epidermal growth factor (Roche), used as stimulus at 100 ng/ml |  |  |  |  |  |  |  | almost complete wound closure | robustly increases BrdU incorporation | significantly increases the motility | significantly increases BrdU incorporation | significantly increases BrdU incorporation | significantly incorporate BrdU | robustly increases
